Patent EP4026700A1, “INPRINTING” (Smart Coloring GmbH, priority 2021, dated 2022)

Experiment: Solubility in double distilled water
Assay type: physicochemical

Q: Which “solubility in double distilled water” value does the source give for Disperse Blue 56 here?
A: about 14 mg/l
